system: Rattus norvegicus; assay: (§1) In vivo inhibitory percentage of pressor response induced by exogenous submaximal dose of angiotensin -II […] administered iv to pithed rats; type: functional; details: not given

Structure (SMILES)	Inhibition [%]
CCc1nc2c(C)cc(C)nc2n1Cc1ccc([C@H](c2ccccc2)[C@@H](C)C(=O)O)cc1 (stereo in doubt; (+)37g)	19.7
CCc1nc2c(C)cc(C)nc2n1Cc1ccc([C@H](c2ccccc2)[C@H](CC)C(=O)O)cc1	86.1
CCc1nc2c(C)cc(C)nc2n1Cc1ccc([C@H](c2ccccc2)[C@H](C)C(=O)O)o1	<10
CCCCc1nc(Cl)c(CO)n1Cc1ccc(-c2ccccc2-c2nnn[nH]2)cc1 [LOSARTAN]	93.5
CCc1nc2c(C)cc(C)nc2n1Cc1ccc([C@H](c2ccccc2)[C@H](C)C(=O)O)cc1 (stereo in doubt; 36g)	84.8
CCC[C@@H](C(=O)O)[C@@H](c1ccccc1)c1ccc(Cn2c(CC)nc3c(C)cc(C)nc32)cc1	27.8
CCc1nc2c(C)cc(C)nc2n1Cc1ccc([C@H](c2ccccc2)[C@@H](C)C(=O)O)cc1 (stereo in doubt; 37g)	28.2
CCC[C@H](C(=O)O)[C@@H](c1ccccc1)c1ccc(Cn2c(CC)nc3c(C)cc(C)nc32)cc1	73.8
CCc1nc2c(C)cc(C)nc2n1Cc1ccc([C@H](c2ccccc2)[C@@H](CC)C(=O)O)cc1	44.9
CCc1nc2c(C)cc(C)nc2n1Cc1ccc([C@H](c2ccccc2)[C@H](C)C(=O)NS(C)(=O)=O)cc1	71.3
CCc1nc2c(C)cc(C)nc2n1Cc1ccc([C@H](c2ccccc2)[C@H](C)C(=O)O)cc1 (stereo in doubt; (+36)g)	80.9
CCc1nc2c(C)cc(C)nc2n1Cc1ccc([C@H](c2ccccc2)[C@H](C)C(=O)O)cc1 (stereo in doubt; (-36)g)	80.3
CCc1nc2c(C)cc(C)nc2n1Cc1ccc([C@H](c2ccccc2)[C@@H](C)C(=O)O)cc1 (stereo in doubt; (-)37g)	22.1
CCc1nc2c(C)cc(C)nc2n1Cc1ccc([C@H](c2ccccc2)[C@@H](C)C(=O)O)o1	<10

species: Oryctolagus cuniculus; assay: Antagonism against A-2 induced contraction of aortic rings from rabbit.; type: functional; details: Aorta, read-out: pA2 (converted)

Structure (SMILES)	Kb [nM]
CCc1nc2c(C)cc(C)nc2n1Cc1ccc([C@H](c2ccccc2)[C@H](CC)C(=O)O)cc1	3.89
CCCCc1nc(Cl)c(CO)n1Cc1ccc(-c2ccccc2-c2nnn[nH]2)cc1 [LOSARTAN]	2.95
CCc1nc2c(C)cc(C)nc2n1Cc1ccc([C@H](c2ccccc2)[C@@H](C)C(=O)O)cc1 (stereo in doubt; 37g)	49

biological target: Angiotensin II receptor (Rattus norvegicus) (UniProt P29089+P25095+P35351); assay: In vivo inhibitory percentage of pressor response induced by exogenous submaximal dose of angiotensin-II (3 ug/kg) administered iv to pithed rats; type: functional, organism-based; details: not given
Sequence (P35351 whole entry, looked up, one chain of several): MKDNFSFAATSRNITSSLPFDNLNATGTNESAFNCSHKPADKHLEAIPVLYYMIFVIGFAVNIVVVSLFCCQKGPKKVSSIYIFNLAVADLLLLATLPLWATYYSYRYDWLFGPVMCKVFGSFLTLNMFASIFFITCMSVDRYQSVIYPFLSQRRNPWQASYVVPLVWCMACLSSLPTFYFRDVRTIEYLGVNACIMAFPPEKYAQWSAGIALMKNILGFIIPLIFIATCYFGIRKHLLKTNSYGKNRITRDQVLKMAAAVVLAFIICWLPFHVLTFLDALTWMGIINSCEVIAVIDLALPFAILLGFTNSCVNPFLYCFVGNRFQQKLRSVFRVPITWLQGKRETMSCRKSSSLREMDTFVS

Structure (SMILES)	inhibition [%]
CCc1nc2c(C)cc(C)nc2n1Cc1ccc(/C(=C\C(=O)O)c2ccccc2)cc1 (stereo in doubt; 12B)	22.9
CCc1nc2c(C)cc(C)nc2n1Cc1ccc(C(=C(C(=O)O)C(=O)O)c2ccccc2)cc1	69.2
CCc1nc2c(C)cc(C)nc2n1Cc1ccc(C(c2cccc(C)c2)C(C(=O)O)C(=O)O)cc1 (configuration not stated)	61.7
CCc1nc2c(C)cc(C)nc2n1Cc1ccc(/C(=C(/Br)c2nn[nH]n2)c2ccccc2)cc1 (stereo in doubt; 22d)	22.8
CCc1nc2c(C)cc(C)nc2n1Cc1ccc(C(c2ccccc2)C(C#N)C(=O)O)cc1 (configuration not stated)	68.7
CCc1nc2c(C)cc(C)nc2n1Cc1ccc(C(c2ccccc2)C(C(=O)O)C(=O)O)cc1 (configuration not stated)	79.9

The next lines start with the values.

inhibition [%]	Structure (SMILES)
76.2	CCc1nc2c(C)cc(C)nc2n1Cc1ccc(C(c2ccccc2)C(CC)C(=O)O)cc1 (configuration not stated)
45.7	CCc1nc2c(C)cc(C)nc2n1Cc1ccc(C(CC)C(C)C(=O)O)cc1 (configuration not stated)
69.1	CCc1nc2c(C)cc(C)nc2n1Cc1ccc(C(CC(=O)O)c2ccccc2Cl)cc1 (configuration not stated)
31.5	CCc1nc2c(C)cc(C)nc2n1Cc1ccc(C(c2ccccc2)C(Cc2ccccc2)C(=O)O)cc1 (configuration not stated)
41	CCc1nc2c(C)cc(C)nc2n1Cc1ccc(/C(=C\c2nn[nH]n2)c2ccccc2)cc1 (stereo in doubt; 22a)
72.7	CCc1nc2c(C)cc(C)nc2n1Cc1ccc(C(CC(=O)NS(C)(=O)=O)c2ccccc2)cc1 (configuration not stated)

biological target: T1, Angiotensin II receptor (AT-1) type-1 (Rattus norvegicus, UniProt P29089+P25095); assay: Inhibitory concentration was evaluated by measuring displacement of [3H]AII from rat liver Angiotensin II receptor, type 1; details: not given
T1 sequence (P29089 whole entry): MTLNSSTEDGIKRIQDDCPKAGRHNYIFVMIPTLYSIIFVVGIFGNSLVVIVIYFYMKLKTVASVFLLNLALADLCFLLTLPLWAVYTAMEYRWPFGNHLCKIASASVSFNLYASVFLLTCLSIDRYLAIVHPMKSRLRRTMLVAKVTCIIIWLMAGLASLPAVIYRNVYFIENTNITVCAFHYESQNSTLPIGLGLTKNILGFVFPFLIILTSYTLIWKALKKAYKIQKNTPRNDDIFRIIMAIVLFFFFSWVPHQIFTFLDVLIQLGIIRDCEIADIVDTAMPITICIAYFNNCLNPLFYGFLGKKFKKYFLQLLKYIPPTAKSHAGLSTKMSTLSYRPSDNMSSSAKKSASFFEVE
T1 sequence (P25095 whole entry): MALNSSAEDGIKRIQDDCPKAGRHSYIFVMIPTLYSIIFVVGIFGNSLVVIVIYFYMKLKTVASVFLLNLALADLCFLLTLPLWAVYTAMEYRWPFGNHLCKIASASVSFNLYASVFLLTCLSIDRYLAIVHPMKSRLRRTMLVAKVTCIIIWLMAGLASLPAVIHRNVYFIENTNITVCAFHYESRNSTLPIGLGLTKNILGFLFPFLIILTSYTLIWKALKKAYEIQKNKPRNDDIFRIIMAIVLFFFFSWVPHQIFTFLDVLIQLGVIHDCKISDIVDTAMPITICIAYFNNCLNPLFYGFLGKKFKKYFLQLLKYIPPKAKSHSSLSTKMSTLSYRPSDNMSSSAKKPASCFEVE

Structure (SMILES)	IC50 [nM]
CCc1nc2c(C)cc(C)nc2n1Cc1ccc(C(=C(C(=O)O)C(=O)O)c2ccccc2)cc1	320
CCc1nc2c(C)cc(C)nc2n1Cc1ccc(C(c2cccc(C)c2)C(C(=O)O)C(=O)O)cc1 (configuration not stated)	450
CCc1nc2c(C)cc(C)nc2n1Cc1ccc([C@H](c2ccccc2)[C@H](CC)C(=O)O)cc1	50
CCC[C@@H](C(=O)O)[C@@H](c1ccccc1)c1ccc(Cn2c(CC)nc3c(C)cc(C)nc32)cc1	590
CCc1nc2c(C)cc(C)nc2n1Cc1ccc(C(c2ccccc2)C(C#N)C(=O)O)cc1 (configuration not stated)	160
CCc1nc2c(C)cc(C)nc2n1Cc1ccc(C(c2ccccc2)C(C(=O)O)C(=O)O)cc1 (configuration not stated)	120
CCC[C@H](C(=O)O)[C@@H](c1ccccc1)c1ccc(Cn2c(CC)nc3c(C)cc(C)nc32)cc1	83
CCc1nc2c(C)cc(C)nc2n1Cc1ccc([C@H](c2ccccc2)[C@H](C)C(=O)NS(C)(=O)=O)cc1	58
CCc1nc2c(C)cc(C)nc2n1Cc1ccc([C@H](c2ccccc2)[C@H](C)C(=O)O)cc1 (stereo in doubt; (+36)g)	71
CCc1nc2c(C)cc(C)nc2n1Cc1ccc([C@H](c2ccccc2)[C@H](C)C(=O)O)cc1 (stereo in doubt; (-36)g)	76
CCc1nc2c(C)cc(C)nc2n1Cc1ccc([C@H](c2ccccc2)[C@@H](C)C(=O)O)cc1 (stereo in doubt; (-)37g)	180
CCc1nc2c(C)cc(C)nc2n1Cc1ccc([C@H](c2ccccc2)[C@@H](C)C(=O)O)o1	5600

The remaining lines, values ahead:

IC50 [nM]	Structure (SMILES)
78	CCc1nc2c(C)cc(C)nc2n1Cc1ccc(C(c2ccccc2)C(CC)C(=O)O)cc1 (configuration not stated)
440	CCc1nc2c(C)cc(C)nc2n1Cc1ccc([C@H](c2ccccc2)[C@@H](C)C(=O)O)cc1 (stereo in doubt; (+)37g)
330	CCc1nc2c(C)cc(C)nc2n1Cc1ccc(C(CC)C(C)C(=O)O)cc1 (configuration not stated)
200	CCc1nc2c(C)cc(C)nc2n1Cc1ccc(C(CC(=O)O)c2ccccc2Cl)cc1 (configuration not stated)
200	CCc1nc2c(C)cc(C)nc2n1Cc1ccc(C(c2ccccc2)C(Cc2ccccc2)C(=O)O)cc1 (configuration not stated)
4800	CCc1nc2c(C)cc(C)nc2n1Cc1ccc([C@H](c2ccccc2)[C@H](C)C(=O)O)o1
94	CCc1nc2c(C)cc(C)nc2n1Cc1ccc(C(CC(=O)NS(C)(=O)=O)c2ccccc2)cc1 (configuration not stated)
69	CCc1nc2c(C)cc(C)nc2n1Cc1ccc([C@H](c2ccccc2)[C@H](C)C(=O)O)cc1 (stereo in doubt; 36g)
250	CCc1nc2c(C)cc(C)nc2n1Cc1ccc([C@H](c2ccccc2)[C@@H](C)C(=O)O)cc1 (stereo in doubt; 37g)
450	CCc1nc2c(C)cc(C)nc2n1Cc1ccc([C@H](c2ccccc2)[C@@H](CC)C(=O)O)cc1

species: Oryctolagus cuniculus; assay: Antagonism against A-2 induced contraction of aortic rings of rabbit.; details: read-out: pA2 (converted)

Structure (SMILES)	Kb [nM]
CCc1nc2c(C)cc(C)nc2n1Cc1ccc([C@H](c2ccccc2)[C@H](C)C(=O)O)cc1 (stereo in doubt; 36g)	2.04

system: Rattus norvegicus; assay: as §1; type: functional; details: not given

Structure (SMILES)	Inhibition [%]
CCc1nc2c(C)cc(C)nc2n1Cc1ccc([C@H](c2ccccc2)[C@H](CC)C(=O)O)cc1	73.3
CCCCc1nc(Cl)c(CO)n1Cc1ccc(-c2ccccc2-c2nnn[nH]2)cc1 [LOSARTAN]	62.5
CCc1nc2c(C)cc(C)nc2n1Cc1ccc([C@H](c2ccccc2)[C@H](C)C(=O)O)cc1 (stereo in doubt; 36g)	68.5
CCC[C@H](C(=O)O)[C@@H](c1ccccc1)c1ccc(Cn2c(CC)nc3c(C)cc(C)nc32)cc1	64
CCc1nc2c(C)cc(C)nc2n1Cc1ccc([C@H](c2ccccc2)[C@H](C)C(=O)NS(C)(=O)=O)cc1	55.9
